Experimental data from US9938240B2, “Fluorinated derivatives of 3-hydroxypyridin-4-ones” (Apotex Technologies Inc., priority 2009, dated 2018).

Tests used:
[1] = tested on: human neuroblastoma MC-65 cells; assay: cells; conditions: for EC100 / minimal effective concentration: Homo sapiens, MC65, 48 h; for EC100: read-out: EC100 (maximum effective concentration); for minimal effective concentration: read-out: TH (threshold protective concentration); for CC2 (cytotoxic concentration): MC-65, cultured without tetracycline; for CC2 (cytotoxic concentration) / CC1 (cytotoxic concentration): viability below 80%; for CC1 (cytotoxic concentration): MC-65, presence of TET
Experimental: In this assay, human neuroblastoma cells (MC-65 cells) are genetically engineered to conditionally express amyloid β peptide (Aβ). The Aβ production is suppressed by tetracycline (TET+) presence in culture medium, and its production is activated when TET is withdrawn (TET−). The activation of Aβ production results in cell death “MC-65 suicide”.
Protective effect of compounds against edogenously produced amyloid beta (Aβ) was assessed in human neuroblastoma MC-65 cells. MC-65 cells have been stably transformed to conditionally express high levels of a partial amyloid precursor (AP) fusion protein (Bryce Sopher et al., Brain Res Mol Brain Res. 1994, 207-17.). This protein is further proteolitically processed in the cells to form a set of AP-derived Aβ peptides. […] Activity of the promoter is tightly regulated by the presence of the antibiotic tetracycline (TET) in the culture medium. In the presence of TET (TET+), the promoter is in the basal state and no amyloid beta peptide is synthesized. In the absence of TET (TET−) the promoter is in induced state, resulting in the accumulation of Aβ peptides in the cells, degenerative changes in cell morphology and decreased survival.
Transfected human neuroblastoma cells (MC-65) were cultured in DMEM (ATCC) supplemented with non-essential amino acids and 10% FBS (VWR) in the presence of TET (1 μg/mL). For the experiment, the cells were plated at 35,000 cells/cm^2 and grown for 1 day in the regular culture media prior to compound addition. On the day of the assay, culture supernatant was removed from the wells and cells were thoroughly washed once with the compound incubation matrix containing no FBS and no TET. MC-65 cells were treated with a test compound at pre-determined range of concentrations in a basal medium containing no FBS and in the absence or presence of 1 μg/mL TET for approximately 48 h. Cell viability was then measured using the MTT method.
For data analysis, cell viabilities relative to the control not treated with a test compound and maintained in the presence of TET were plotted against the compound concentration. […] Cytotoxicity of the test compound was assessed in the cells maintained in the presence of TET.

[2] = tested on: SH-SY5Y human neuroblastoma cells; conditions: for CC2 (cytotoxic concentration): H2O2-treated cells, viability below 80%; for CC1 (cytotoxic concentration): absence of H2O2, viability below 80%
Excerpt: Hydrogen peroxide (H2O2) is a major ROS (reactive oxidative species), which causes oxidative stress, and can induce apoptosis in many different cell types. One of the CNS drug design strategies is to use compounds with antioxidant properties as a possible treatment of both acute and chronic neurodegenerative diseases (Kang et al. Bioorganic & Medicinal Chemistry Letters, 2004, 14, 2261-2264). This involves testing the compounds of this invention for their protective effect against oxidative stress-induced cell death in SH-SY5Y human neuroblastoma cells. SH-SY5Y human neuroblastoma cells were cultured in DMEM (ATCC)/F12 (Cellgro) with 10% FBS. The cells were plated at 30,000 cells/cm^2 and grown for 1 day in the regular culture media prior to compound addition. Cells were routinely treated with the test compound, at a pre-determined range of concentrations, in the presence or absence of 50 μM hydrogen peroxide in a basal medium containing no FBS for 16-22 h. Cell viability was then measured using the routine MTT method (Mosmann, T., Rapid Colorimetric Assay for Cellular Growth and Survival: Application to Proliferation and Cytotoxicity Assays”. J. Immunol. Meth. 1983, 65, 55-63).
For data analysis, cell viability relative to control not treated with either H2O2 or the test compound, was plotted against the compound concentration. […] Cytotoxicity of the test compound was assessed in the absence of hydrogen peroxide.

| Structure (SMILES) | EC100 [1] | minimal effective concentration [1] | CC2 (cytotoxic concentration) [1] | CC1 (cytotoxic concentration) [1] | CC2 (cytotoxic concentration) [2] | CC1 (cytotoxic concentration) [2] |
| --- | --- | --- | --- | --- | --- | --- |
| C#CCN(C)C(c1c(O)c(=O)ccn1C)C(F)(F)F (centres unmarked) [Apo7057, 3-hydroxy-1-methyl-2-{2,2,2-trifluoro-1-[methyl(prop-2-yn-1-yl)amino]ethyl}pyridin-4(1H)-one] | 10 µM | 1 µM | 20 µM | 20 µM | 80 µM | 5 µM |
| Cc1cc(=O)c(O)c(C(N2CCN(Cc3ccccc3)CC2)C(F)(F)F)n1C (centres unmarked) [Apo7334, 2-(1-(4-benzylpiperazin-1-yl)-2,2,2-trifluoroethyl)-3-hydroxy-1,6-dimethylpyridin-4(1H)-one] | 10 µM | 1 µM | 20 µM | 10 µM | 320 µM | 40 µM |
| C[C@H](NCc1cc(=O)c(O)c(C(O)C(F)(F)F)n1C)C(=O)O (stereo partly drawn) [Apo7032, N-{[5-hydroxy-1-methyl-4-oxo-6-(2,2,2-trifluoro-1-hydroxyethyl)-1,4-dihydropyridin-2-yl]methyl}-L-alanine] | 10 µM | 0.1 µM | 40 µM | 80 µM | >640 µM | 10 µM |
| Cc1cc(=O)c(O)cn1CC(F)(F)F [Apo6994, 5-hydroxy-2-methyl-1-(2,2,2-trifluoroethyl)pyridin-4(1H)-one] | 10 µM | 1 µM | >80 µM | >80 µM | 640 µM | 160 µM |
| Cc1cc(=O)c(O)c(C(N2CCOCC2)C(F)(F)F)n1C (centres unmarked) [Apo7333, 3-hydroxy-1,6-dimethyl-2-(2,2,2-trifluoro-1-morpholinoethyl)pyridin-4(1H)-one] | 10 µM | 1 µM | 40 µM | 20 µM | 320 µM | 320 µM |
| Cn1ccc(=O)c(O)c1C(C(F)F)N1CCN(c2ccccn2)CC1 (centres unmarked) [Apo7316, 2-(2,2-difluoro-1-(4-(pyridin-2-yl)piperazin-1-yl)ethyl)-3-hydroxy-1-methylpyridin-4(1H)-one] | 10 µM | 1 µM | 20 µM | 10 µM | 320 µM | 320 µM |
| Cn1ccc(=O)c(O)c1C(NC1CC1)C(F)(F)F (centres unmarked) [Apo7074, 2-[1-(cyclopropylamino)-2,2,2-trifluoroethyl]-3-hydroxy-1-methylpyridin-4(1H)-one] | 10 µM | 0.1 µM | 20 µM | 10 µM | >640 µM | 20 µM |
| CNC(=O)[C@H](C)NCc1cc(=O)c(O)c(C(O)C(F)(F)F)n1C (stereo partly drawn) [Apo7033, N-2-{[5-hydroxy-1-methyl-4-oxo-6-(2,2,2-trifluoro-1-hydroxyethyl)-1,4-dihydropyridin-2-yl]methyl}-N-methyl-L-alaninamide] |  |  |  |  | >640 µM | 40 µM |
| Cc1cc(=O)c(O)c(C(N2CCN(c3ccccc3)CC2)C(F)(F)F)n1C (centres unmarked) [Apo7335, 3-hydroxy-1,6-dimethyl-2-(2,2,2-trifluoro-1-(4-phenylpiperazin-1-yl)ethyl)pyridin-4(1H)-one] | 10 µM | 1 µM | 20 µM | 20 µM | 80 µM | 80 µM |
| Cc1c(O)c(=O)c(C(N2CCCCC2)C(F)(F)F)cn1C (centres unmarked) [Apo7054, 3-Hydroxy-1,2-dimethyl-5-[2,2,2-trifluoro-1-(piperidin-1-yl)ethyl]pyridin-4(1H)-one] | 1 µM | 0.1 µM | 20 µM | 20 µM | >640 µM | 5 µM |
| Cc1c(O)c(=O)c(C(N2CCN(C)CC2)C(F)(F)F)cn1C.Cl (centres unmarked) [Apo7063, 3-Hydroxy-1,2-dimethyl-5-[2,2,2-trifluoro-1-(4-methylpiperazin-1-yl)ethyl]pyridin-4(1H)-one hydrochloride] |  |  |  |  | >640 µM | 320 µM |
| Cc1c(Cl)c(=O)c(O)c(C(N(C)C)C(F)(F)F)n1C (centres unmarked) [Apo7059, 3-chloro-6-[1-(dimethylamino)-2,2,2-trifluoroethyl]-5-hydroxy-1,2-dimethylpyridin-4(1H)-one] | 10 µM | 1 µM | 40 µM | 10 µM | 640 µM | 40 µM |
| Cn1cc(Cl)c(=O)c(O)c1C(N1CCCCC1)C(F)(F)F (centres unmarked) [Apo7061, 5-chloro-3-hydroxy-1-methyl-2-[2,2,2-trifluoro-1-(piperidin-1-yl)ethyl]pyridin-4(1H)-one] | 10 µM | 1 µM | 20 µM | 40 µM | 10 µM | 10 µM |
| Cc1cc(=O)c(O)c(CN2CCOCC2)n1CC(F)(F)F [Apo7434, 3-hydroxy-6-methyl-2-(morpholinomethyl)-1-(2,2,2-trifluoroethyl)pyridin-4(1H)-one] | 20 µM | 1 µM | 40 µM | 40 µM | 320 µM | 320 µM |
| CN(C)Cc1cc(=O)c(O)c(C(O)C(F)(F)F)n1C (centres unmarked) [Apo7022, 6-[(dimethylamino)methyl]-3-hydroxy-1-methyl-2-(2,2,2-trifluoro-1-hydroxyethyl)pyridin-4(1H)-one] | 20 µM | 0.1 µM | 40 µM | 10 µM | 320 µM | 40 µM |
| CN1CCN(C(c2c(O)c(=O)ccn2C)C(F)(F)F)CC1 (centres unmarked) [Apo7073, 3-hydroxy-1-methyl-2-[2,2,2-trifluoro-1-(4-methylpiperazin-1-yl)ethyl]pyridin-4(1H)-one] | 10 µM | 0.1 µM | 20 µM | 40 µM | >640 µM | 40 µM |
| CNC(=O)[C@@H](C)NC(c1c(O)c(=O)ccn1C)C(F)(F)F (stereo partly drawn) [Apo6998, N-methyl-N2-[2,2,2-trifluoro-1-(3-hydroxy-1-methyl-4-oxo-1,4-dihydropyridin-2-yl)ethyl]-D-alaninamide] |  |  |  |  | 100 µM | 20 µM |
| Cc1c(Cl)c(=O)c(O)c(C(O)C(F)(F)F)n1C (centres unmarked) [Apo7038, 3-chloro-5-hydroxy-1,2-dimethyl-6-(2,2,2-trifluoro-1-hydroxyethyl)pyridin-4(1H)-one] |  |  |  |  | >640 µM | 40 µM |
